From ChEMBL document CHEMBL5727957, “1H-pyrazolo[4,3-b]pyridines as PDE1 inhibitors” (2020)

Key:
[1] = target: Dual specificity calcium/calmodulin-dependent 3',5'-cyclic nucleotide phosphodiesterase 1C (Homo sapiens, UniProt Q14123); assay: Inhibition Assay: PDE1A, PDE1B and PDE1C assays were performed as follows: the assays were performed in 60 μL samples containing a fixed amount of the PDE1 enzyme (sufficient to convert 20-25% of the cyclic nucleotide substrate), a buffer (50 mM HEPES pH 7.6; 10 mM MgCl2; 0.02% Tween20), 0.1 mg/ml BSA, 15 nM tritium labelled cAMP and varying amounts of inhibitors. Reactions were initiated by …
Sequence of Dual specificity calcium/calmodulin-dependent 3',5'-cyclic nucleotide phosphodiesterase 1C (Q14123 whole entry): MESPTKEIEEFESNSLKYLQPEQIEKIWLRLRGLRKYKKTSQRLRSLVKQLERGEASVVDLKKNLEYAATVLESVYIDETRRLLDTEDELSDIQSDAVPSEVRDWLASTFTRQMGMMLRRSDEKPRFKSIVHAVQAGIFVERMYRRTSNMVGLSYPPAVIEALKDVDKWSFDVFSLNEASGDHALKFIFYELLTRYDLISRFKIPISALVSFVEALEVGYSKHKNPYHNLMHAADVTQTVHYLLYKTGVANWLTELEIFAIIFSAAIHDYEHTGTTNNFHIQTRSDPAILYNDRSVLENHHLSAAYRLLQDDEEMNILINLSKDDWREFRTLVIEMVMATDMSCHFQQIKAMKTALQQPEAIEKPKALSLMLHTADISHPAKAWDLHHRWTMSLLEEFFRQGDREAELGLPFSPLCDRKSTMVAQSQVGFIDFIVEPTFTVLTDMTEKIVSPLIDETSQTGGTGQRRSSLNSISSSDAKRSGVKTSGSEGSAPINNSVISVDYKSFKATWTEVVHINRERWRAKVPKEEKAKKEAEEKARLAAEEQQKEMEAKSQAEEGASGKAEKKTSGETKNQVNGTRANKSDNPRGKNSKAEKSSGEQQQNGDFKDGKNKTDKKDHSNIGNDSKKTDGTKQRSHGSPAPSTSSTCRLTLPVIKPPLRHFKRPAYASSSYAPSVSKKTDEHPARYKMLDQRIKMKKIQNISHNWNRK
Description: (§1) Reactions were initiated by addition of the cyclic nucleotide substrate, and reactions were allowed to proceed for 1 hr at room temperature before being terminated through mixing with 20 μL (0.2 mg) yttrium silicate SPA beads (PerkinElmer).

[2] = target: Dual specificity calcium/calmodulin-dependent 3',5'-cyclic nucleotide phosphodiesterase 1A (Homo sapiens, UniProt P54750); assay: as above
Sequence of Dual specificity calcium/calmodulin-dependent 3',5'-cyclic nucleotide phosphodiesterase 1A (P54750 whole entry): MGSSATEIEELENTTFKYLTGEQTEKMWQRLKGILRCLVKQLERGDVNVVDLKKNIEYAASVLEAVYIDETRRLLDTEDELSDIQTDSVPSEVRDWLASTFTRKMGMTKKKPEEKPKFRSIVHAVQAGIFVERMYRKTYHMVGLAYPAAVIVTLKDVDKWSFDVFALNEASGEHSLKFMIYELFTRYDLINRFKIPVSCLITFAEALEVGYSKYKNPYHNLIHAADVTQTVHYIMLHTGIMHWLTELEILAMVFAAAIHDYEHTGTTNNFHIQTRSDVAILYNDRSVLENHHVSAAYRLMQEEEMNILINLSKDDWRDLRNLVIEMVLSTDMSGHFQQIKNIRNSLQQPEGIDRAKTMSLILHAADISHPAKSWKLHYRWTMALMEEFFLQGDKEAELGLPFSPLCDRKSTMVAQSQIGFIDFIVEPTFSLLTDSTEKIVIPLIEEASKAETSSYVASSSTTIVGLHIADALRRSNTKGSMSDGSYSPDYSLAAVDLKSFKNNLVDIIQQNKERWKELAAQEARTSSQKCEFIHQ
Description: as §1

Compound: CCOc1ncccc1-c1cc(NCc2cccc3ocnc23)c2c(n1)c(C)nn2C(C)C
- IC50 [1]: 39 nM
- IC50 [2]: 14 nM

Compound: CCOc1ncccc1-c1cc(NCc2cccn3c(C)nnc23)c2c(n1)c(C)nn2C(C)C
- IC50 [1]: 6.1 nM
- IC50 [2]: 3 nM
